Assay results reported in US20240301000A1, “TETRAPEPTIDE DERIVATIVE,COSMETIC COMPOSITION OR PHARMACEUTICAL COMPOSITION AND USE THEREOF” (SHENZHEN WINKEY TECHNOLOGY CO., LTD, priority 2021, published 2024).
Residues, ends and D or L forms follow the SMILES beside them. *: point of attachment. X1 = O=C(OCc1cc(=O)c(O)co1)*; Nicotinoyl = O=C(c1cccnc1)*

Key:
Type in all cases: cell-based, Human
α-MSH = assay: Cell assay for inhibition of α-MSH generation (ELISA, HaCaT supernatant); conditions: 100 ppm, 48 h; for statistical difference in the α-MSH inhibition compared with the control group: HaCaT (FIG. 2); for effect on α-MSH expression: HaCaT supernatant, compared with PBS control group (FIG. 2)
Procedure: Fetal bovine serum, DMEM medium, penicillin, streptomycin, and an α-MSH ELISA kit.
(§1) Human keratinocytes (HaCaT) were purchased from the Kunming Cell Bank of China Center for Type Culture Collection under the Chinese Academy of Sciences.
• 100 ppm of the reference peptide, 100 ppm of the peptide (1), 100 ppm of the peptide (3), 100 ppm of the peptide (5), 100 ppm of NA, 100 ppm of TXC, and 100 ppm of KA.
(§2) The frozen HaCaT cells were cultured and passaged at a ratio of 1:2 to about the 5th generation, and the cells in better growth were selected as experiment subjects.
When the cells were about 80% confluent, the samples were added to each group. In the control group, a PBS solution was added and supplemented with a culture medium to 1000 μL. In the drug groups, the diluted active substance and the culture medium were added to 1000 μL and the groups were further incubated in a 5% CO2 incubator at 37° C. for 48 h. After the completion of the culture, the solutions were centrifuged at 3000 rpm for 10 min, in each of which a cell supernatant was collected to obtain a sample liquid. Operations were performed according to the instructions of the α-MSH kit.
α-MSH can promote the formation of melanin by activating tyrosinase. Therefore, down-regulation of the α-MSH expression can reduce melanin generation and exert a whitening effect.

TNF-α = assay: Anti-inflammatory cell assay, UV-irradiated HaCaT cells, TNF-α ELISA; conditions: 50 ppm, 48 h after UV irradiation, compared with UV group (FIG. 4)
Procedure: (§3) Fetal bovine serum, DMEM medium, penicillin, streptomycin, an IL-6 ELISA kit and a TNF-α ELISA kit.
as §1
(§4) • 50 ppm of the reference peptide, 50 ppm of the peptide (1), 50 ppm of the peptide (3), and 50 ppm of the peptide (5).
as §2
(§5) When the cells were about 80% confluent, a model of inflammation stimulated by UV radiation was established. In the control group, a PBS solution was added and supplemented with the culture medium to 1000 μL, while no UV irradiation was performed; The UV group and the drug groups were exposed to an […] UV light. After irradiation, in the UV group the PBS solution and a culture medium were added to 1000 μL, and in the drug groups the diluted active substance and the culture medium were added to 1000 μL. The control group, the UV group, and the drug groups were further incubated in a 5% CO2 incubator at 37° C. for 48 h. After the completion of the culture, the solutions were centrifuged at 3000 rpm for 10 min, in each of which a cell supernatant was collected to obtain a sample liquid. […]

IL-6 = assay: Anti-inflammatory cell assay, UV-irradiated HaCaT cells, IL-6 ELISA; conditions: 50 ppm, 48 h after UV irradiation, compared with UV group (FIG. 3)
Procedure: as §3, §1, §4, §2, §5

HaCaT cells = assay: Cell viability assay (MTT) in HaCaT cells; conditions: 1, 10, 100 and 200 ppm, 72 h, compared with PBS control group (FIG. 1)
Description: as §1
• the peptide H-Pro-Lys-Glu-Lys-OH (hereinafter referred to as the reference peptide), at a test concentration of 1 ppm, 10 ppm, 100 ppm, and 200 ppm, respectively; • the peptide (1), at a test concentration of 1 ppm, 10 ppm, 100 ppm, and 200 ppm, respectively; • the peptide (3), at a test concentration of 1 ppm, 10 ppm, 100 ppm, and 200 ppm, respectively; • the peptide (5), at a test concentration of 1 ppm, 10 ppm, 100 ppm, and 200 ppm, respectively.
The purpose of this experiment is to evaluate cell viability 72 h after administration and determine the effect of the peptide derivatives of the present invention on cell viability by using HaCaT cells as the experiment subject.
as §2
The cells were inoculated in a 96-well plate at 2000 cells/well. After the cells adhered to the wall, samples of the drug groups and the control group were added according to the multiple dilution method, supplemented with a culture medium to 200 μL, and cultured in a 5% CO2 incubator at 37° C. for 72 h.
Then 20 μL 5 mg/ml MTT was added to each well and the incubation was continued in the 5% CO2 incubator at 37° C. for 4 h. The original solution was removed and DMSO was added at 150 μL/well. After 5 min, the microplate reader was used to read the reference OD values at 490 nm and 630 nm wavelengths.
The MTT assay is a method of detecting cell survival and growth. The measured OD values are directly proportional to cell viability.

Row | Compound | statistical difference in the α-MSH inhibition compared with the control group (α-MSH) | effect on α-MSH expression (α-MSH) | effect on TNF-α expression (TNF-α) | effect on IL-6 expression (IL-6) | effect on HaCaT cell viability (HaCaT cells)
1 | H-Pro-Lys-Glu-Lys-OH (H-PKEK-OH) [reference peptide] | no statistical difference | inhibited the α-MSH expression to a certain extent | inhibited the TNF-α expression to a certain extent, but the inhibitory effect was not obvious | significantly down-regulated | –
2 | O=c1cc(CO)occ1O [KA, kojic acid] | no statistical difference | inhibited the α-MSH expression to a certain extent | – | – | –
3 | tranexamic acid [TXC] | – | inhibited the α-MSH expression to a certain extent | – | – | –
4 | NCCCCC(NC(=O)C(CCC(=O)O)NC(=O)C(CCCCN)NC(=O)C1CCCN1C(=O)c1cccnc1)C(=O)O (stereo not drawn) [peptide (1), NA-Pro-Lys-Glu-Lys-OH] (Nicotinoyl-PKEK-OH; configuration not given here) | – | – | – | – | no significant effect
5 | NCCCCC(NC(=O)C(CCC(=O)O)NC(=O)C(CCCCN)NC(=O)C1CCCN1C(=O)OCc1cc(=O)c(O)co1)C(=O)O (stereo not drawn) [peptide (5), KA-CO-Pro-Lys-Glu-Lys-OH] (X1-PKEK-OH; configuration not given here) | – | – | – | – | no significant effect
6 | O=C(O)c1cccnc1 [NA, niacin] | no statistical difference | inhibited the α-MSH expression to a certain extent | – | – | –
7 | TXC-Pro-Lys-Glu-Lys-OH [peptide (3)] | – | significantly down-regulated | significantly down-regulated | significantly down-regulated | no significant effect
